Data: publication PMC9653409, “Generative deep learning enables the discovery of a potent and selective RIPK1 inhibitor” (Nature Communications, 2022)
Several values for one entry are separate records, joined by “and”; a condition that tells them apart may be missing. Identical values can stand only once.

Tests used:
[1] = target: panel of human kinases (kinase named in endpoint) (Homo sapiens, UniProt P07949); experiment: Kinase inhibitory activity profiling of RI-962@10 µM (406 kinases, Eurofins); format: biochemical; settings: 10 µM; read-out: Activity (%), Ret(h)
How it was run: (§1)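 Radiometric filter-binding kinase assays: enzyme preincubated 15 min with compound in 8 mM MOPS pH 7.0, 0.2 mM EDTA, 250 μM peptide substrate, 10 mM magnesium acetate, 10 μM [γ-33P]-ATP. Reaction started with Mg/ATP, run 40 min at room temperature, stopped with phosphoric acid; 33P incorporation read by scintillation counting. Other kinases by similar protocols.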

[2] = target: panel of human kinases (kinase named in endpoint) (Homo sapiens, UniProt Q5MAI5); experiment: as above; format: biochemical; settings: 10 µM; read-out: Activity (%), CDKL4(h)
How it was run: as §1

[3] = target: panel of human kinases (kinase named in endpoint) (Homo sapiens, UniProt Q9P1W9); experiment: as above; format: biochemical; settings: 10 µM; read-out: Activity (%), Pim-2(h)
How it was run: as §1

[4] = target: panel of human kinases (kinase named in endpoint) (Homo sapiens, UniProt P37023); experiment: as above; format: biochemical; settings: 10 µM; read-out: Activity (%), ALK1(h)
How it was run: as §1

[5] = target: panel of human kinases (kinase named in endpoint) (Homo sapiens, UniProt Q9NY57); experiment: as above; format: biochemical; settings: 10 µM; read-out: Activity (%), STK32B(h)
How it was run: as §1

[6] = target: panel of human kinases (kinase named in endpoint) (Homo sapiens, UniProt P54760); experiment: as above; format: biochemical; settings: 10 µM; read-out: Activity (%), EphB4(h)
How it was run: as §1

[7] = target: panel of human kinases (kinase named in endpoint) (Homo sapiens, UniProt Q00536); experiment: as above; format: biochemical; settings: 10 µM; read-out: Activity (%), CDK16/cyclinY(h)
How it was run: as §1

[8] = target: panel of human kinases (kinase named in endpoint) (Homo sapiens, UniProt Q9BXA7); experiment: as above; format: biochemical; settings: 10 µM; read-out: Activity (%), TSSK1(h)
How it was run: as §1

[9] = target: panel of human kinases (kinase named in endpoint) (Homo sapiens, UniProt Q13882); experiment: as above; format: biochemical; settings: 10 µM; read-out: Activity (%), BRK(h)
How it was run: as §1

[10] = target: panel of human kinases (kinase named in endpoint) (Homo sapiens, UniProt P29322); experiment: as above; format: biochemical; settings: 10 µM; read-out: Activity (%), EphA8(h)
How it was run: as §1

[11] = target: panel of human kinases (kinase named in endpoint) (Homo sapiens, UniProt Q8WU08); experiment: as above; format: biochemical; settings: 10 µM; read-out: Activity (%), STK32A(h)
How it was run: as §1

[12] = target: panel of human kinases (kinase named in endpoint) (Homo sapiens, UniProt Q9H093); experiment: as above; format: biochemical; settings: 10 µM; read-out: Activity (%), NUAK2(h)
How it was run: as §1

[13] = target: panel of human kinases (kinase named in endpoint) (Homo sapiens, UniProt O15530); experiment: as above; format: biochemical; settings: 10 µM; read-out: Activity (%), PDK1(h)
How it was run: as §1

[14] = target: panel of human kinases (kinase named in endpoint) (Homo sapiens, UniProt Q9UIK4); experiment: as above; format: biochemical; settings: 10 µM; read-out: Activity (%), DAPK2(h)
How it was run: as §1

[15] = target: panel of human kinases (kinase named in endpoint) (Homo sapiens, UniProt Q9C098); experiment: as above; format: biochemical; settings: 10 µM; read-out: Activity (%), DCAMKL3(h)
How it was run: as §1

[16] = target: panel of human kinases (kinase named in endpoint) (Homo sapiens, UniProt P04626); experiment: as above; format: biochemical; settings: 10 µM; read-out: Activity (%), ErbB2(h)
How it was run: as §1

[17] = target: MLK2 (Homo sapiens, UniProt Q02779); experiment: Kinase assay (Eurofins); format: biochemical
Method: (§2) In vitro kinase activity assays were conducted through the Kinase Profiling Services provided by Eurofins (Eurofins, France). The protocol for the RIPK1 assay is briefly described as follows (Protocols for other kinases are very similar and can be found in http://www.eurofins.com/pharmadiscovery). RIPK1 kinase was incubated with the test compound in assay buffer containing 8 mM MOPS (pH 7.0), 0.2 mM EDTA, 250 μM […], 10 mM magnesium acetate, and 10 μM [γ-33P]-ATP for 15 min at room temperature. The reaction was initiated by the addition of the Mg/ATP mixture. After incubation for 40 min at room temperature, and the reaction was stopped by the addition of 3% phosphoric acid. A 10 μL portion of the reaction mixture was then spotted onto a P30 filter mat and washed four times for 4 min in 0.425% phosphoric acid and once in methanol prior to drying and scintillation counting.

[18] = target: RIPK2 (Homo sapiens, UniProt O43353); experiment: Kinase assay (Eurofins); format: biochemical
Method: as §2

[19] = target: MLK1 (Homo sapiens, UniProt P80192); experiment: Kinase assay (Eurofins); format: biochemical
Method: as §2

[20] = target: MLK3 (Homo sapiens, UniProt Q16584); experiment: Kinase assay (Eurofins); format: biochemical
Method: as §2

[21] = test system: TNFα-induced SIRS; experiment: TNFα-induced SIRS mouse model: body temperature loss; format: in vivo, C57BL/6 female mice; settings: for ΔTemperature Average: group average
Method: The body temperatures of the mice were continuously monitored until 6 h after TNFα administration. At 6 h after TNFα injection, four mice in each group were killed at random, and the serums, heart, liver, spleen, lung, and kidney tissues were collected for analysis.

[22] = 0 h after mTNFα, individual mice

Sequence of MLK3 (Q16584 whole entry): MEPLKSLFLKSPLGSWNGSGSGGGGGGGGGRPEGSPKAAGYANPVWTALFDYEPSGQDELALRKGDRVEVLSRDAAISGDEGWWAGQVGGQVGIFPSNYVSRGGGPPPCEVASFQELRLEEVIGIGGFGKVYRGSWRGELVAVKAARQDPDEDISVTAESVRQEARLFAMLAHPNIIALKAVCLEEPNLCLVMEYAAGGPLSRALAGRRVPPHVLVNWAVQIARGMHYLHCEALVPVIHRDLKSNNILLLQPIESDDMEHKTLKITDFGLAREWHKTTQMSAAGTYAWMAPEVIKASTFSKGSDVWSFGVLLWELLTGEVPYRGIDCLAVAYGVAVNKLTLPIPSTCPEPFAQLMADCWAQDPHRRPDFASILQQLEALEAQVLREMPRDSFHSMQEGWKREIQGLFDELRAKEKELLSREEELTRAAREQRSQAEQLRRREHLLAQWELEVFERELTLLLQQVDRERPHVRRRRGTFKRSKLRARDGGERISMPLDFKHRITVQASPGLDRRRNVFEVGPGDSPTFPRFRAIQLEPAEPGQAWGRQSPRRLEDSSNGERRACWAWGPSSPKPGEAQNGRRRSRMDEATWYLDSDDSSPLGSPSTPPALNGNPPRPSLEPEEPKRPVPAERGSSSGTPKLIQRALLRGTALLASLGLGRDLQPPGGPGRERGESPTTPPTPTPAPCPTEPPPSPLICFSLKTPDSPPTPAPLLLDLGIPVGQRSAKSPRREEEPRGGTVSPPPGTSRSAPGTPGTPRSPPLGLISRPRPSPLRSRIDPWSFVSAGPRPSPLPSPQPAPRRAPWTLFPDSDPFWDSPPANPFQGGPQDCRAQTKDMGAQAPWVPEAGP
Sequence of MLK2 (Q02779 whole entry): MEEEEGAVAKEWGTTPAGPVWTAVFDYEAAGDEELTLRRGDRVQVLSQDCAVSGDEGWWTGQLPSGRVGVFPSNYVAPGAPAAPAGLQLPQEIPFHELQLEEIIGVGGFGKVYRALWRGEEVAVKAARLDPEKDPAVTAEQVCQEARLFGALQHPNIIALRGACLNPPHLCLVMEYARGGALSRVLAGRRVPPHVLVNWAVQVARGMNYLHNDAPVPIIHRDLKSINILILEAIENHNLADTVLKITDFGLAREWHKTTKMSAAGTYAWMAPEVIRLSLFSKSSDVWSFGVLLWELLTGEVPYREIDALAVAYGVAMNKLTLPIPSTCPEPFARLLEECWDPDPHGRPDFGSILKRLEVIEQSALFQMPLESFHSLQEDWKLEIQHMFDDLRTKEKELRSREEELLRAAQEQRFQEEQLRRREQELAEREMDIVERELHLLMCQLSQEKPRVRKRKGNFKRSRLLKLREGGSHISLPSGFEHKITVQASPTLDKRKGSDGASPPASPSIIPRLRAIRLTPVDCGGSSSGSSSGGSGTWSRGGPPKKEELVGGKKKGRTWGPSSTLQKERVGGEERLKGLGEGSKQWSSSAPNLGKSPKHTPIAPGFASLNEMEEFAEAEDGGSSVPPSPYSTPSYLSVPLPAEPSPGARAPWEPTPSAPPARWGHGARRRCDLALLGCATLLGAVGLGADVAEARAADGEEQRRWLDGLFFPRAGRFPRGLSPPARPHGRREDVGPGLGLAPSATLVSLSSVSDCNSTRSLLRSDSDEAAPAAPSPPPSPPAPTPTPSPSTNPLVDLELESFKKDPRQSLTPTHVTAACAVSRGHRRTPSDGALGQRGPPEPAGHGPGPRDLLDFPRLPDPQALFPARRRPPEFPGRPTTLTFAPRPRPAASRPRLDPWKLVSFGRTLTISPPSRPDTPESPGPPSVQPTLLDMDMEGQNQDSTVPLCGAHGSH
Sequence of MLK1 (P80192 whole entry): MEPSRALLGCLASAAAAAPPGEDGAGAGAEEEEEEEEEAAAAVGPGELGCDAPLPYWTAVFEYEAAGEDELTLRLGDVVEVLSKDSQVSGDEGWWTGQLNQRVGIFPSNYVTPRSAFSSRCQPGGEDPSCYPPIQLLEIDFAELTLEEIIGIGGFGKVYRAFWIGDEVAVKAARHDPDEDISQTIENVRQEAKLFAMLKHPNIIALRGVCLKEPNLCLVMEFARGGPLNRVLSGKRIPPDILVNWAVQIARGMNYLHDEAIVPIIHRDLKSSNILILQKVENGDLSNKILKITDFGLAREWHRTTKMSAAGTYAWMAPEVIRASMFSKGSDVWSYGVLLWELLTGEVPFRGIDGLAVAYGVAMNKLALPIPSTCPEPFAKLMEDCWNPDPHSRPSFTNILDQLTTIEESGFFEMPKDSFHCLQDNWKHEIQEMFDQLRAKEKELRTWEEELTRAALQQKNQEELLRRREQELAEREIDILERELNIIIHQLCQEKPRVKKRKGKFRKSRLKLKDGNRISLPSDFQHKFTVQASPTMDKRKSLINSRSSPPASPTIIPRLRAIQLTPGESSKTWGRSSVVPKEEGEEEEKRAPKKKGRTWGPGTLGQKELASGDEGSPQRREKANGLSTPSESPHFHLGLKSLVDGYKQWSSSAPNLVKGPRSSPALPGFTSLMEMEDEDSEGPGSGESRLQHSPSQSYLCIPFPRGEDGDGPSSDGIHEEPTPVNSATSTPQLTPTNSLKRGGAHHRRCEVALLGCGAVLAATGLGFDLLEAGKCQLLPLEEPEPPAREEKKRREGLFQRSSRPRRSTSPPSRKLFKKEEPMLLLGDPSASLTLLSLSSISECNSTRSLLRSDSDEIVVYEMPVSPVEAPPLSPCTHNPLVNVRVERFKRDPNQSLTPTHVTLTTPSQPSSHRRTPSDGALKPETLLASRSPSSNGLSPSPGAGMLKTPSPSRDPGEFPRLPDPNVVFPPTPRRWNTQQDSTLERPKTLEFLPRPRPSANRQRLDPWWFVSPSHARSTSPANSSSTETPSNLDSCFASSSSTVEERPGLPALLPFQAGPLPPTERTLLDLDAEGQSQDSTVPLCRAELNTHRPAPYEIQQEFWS
Sequence of RIPK2 (O43353 whole entry): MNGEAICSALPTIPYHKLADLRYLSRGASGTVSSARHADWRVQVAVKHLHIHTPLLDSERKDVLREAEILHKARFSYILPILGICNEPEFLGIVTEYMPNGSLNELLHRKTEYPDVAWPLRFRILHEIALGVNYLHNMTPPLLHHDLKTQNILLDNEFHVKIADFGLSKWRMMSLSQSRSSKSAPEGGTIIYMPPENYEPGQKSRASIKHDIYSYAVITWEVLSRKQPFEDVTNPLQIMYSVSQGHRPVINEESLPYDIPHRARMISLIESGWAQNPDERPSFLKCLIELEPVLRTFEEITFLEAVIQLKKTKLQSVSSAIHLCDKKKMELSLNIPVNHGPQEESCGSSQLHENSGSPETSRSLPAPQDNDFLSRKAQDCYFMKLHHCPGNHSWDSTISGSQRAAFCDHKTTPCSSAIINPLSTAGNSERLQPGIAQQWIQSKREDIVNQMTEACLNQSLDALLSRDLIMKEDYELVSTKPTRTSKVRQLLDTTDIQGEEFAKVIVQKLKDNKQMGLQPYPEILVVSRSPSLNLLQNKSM
Sequence of panel of human kinases (kinase named in endpoint) (Homo sapiens, UniProt Q5MAI5) (Q5MAI5 whole entry): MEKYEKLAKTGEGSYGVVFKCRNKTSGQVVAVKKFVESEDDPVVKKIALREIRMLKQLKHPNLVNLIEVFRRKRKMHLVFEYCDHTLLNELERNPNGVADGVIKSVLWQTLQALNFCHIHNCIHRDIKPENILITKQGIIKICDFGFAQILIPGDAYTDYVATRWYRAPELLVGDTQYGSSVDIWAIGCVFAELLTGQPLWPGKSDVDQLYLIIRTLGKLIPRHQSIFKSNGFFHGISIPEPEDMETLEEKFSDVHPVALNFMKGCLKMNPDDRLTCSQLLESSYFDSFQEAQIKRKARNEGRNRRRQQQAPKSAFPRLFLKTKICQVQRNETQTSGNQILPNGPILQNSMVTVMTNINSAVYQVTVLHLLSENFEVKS
Sequence of panel of human kinases (kinase named in endpoint) (Homo sapiens, UniProt Q13882) (Q13882 whole entry): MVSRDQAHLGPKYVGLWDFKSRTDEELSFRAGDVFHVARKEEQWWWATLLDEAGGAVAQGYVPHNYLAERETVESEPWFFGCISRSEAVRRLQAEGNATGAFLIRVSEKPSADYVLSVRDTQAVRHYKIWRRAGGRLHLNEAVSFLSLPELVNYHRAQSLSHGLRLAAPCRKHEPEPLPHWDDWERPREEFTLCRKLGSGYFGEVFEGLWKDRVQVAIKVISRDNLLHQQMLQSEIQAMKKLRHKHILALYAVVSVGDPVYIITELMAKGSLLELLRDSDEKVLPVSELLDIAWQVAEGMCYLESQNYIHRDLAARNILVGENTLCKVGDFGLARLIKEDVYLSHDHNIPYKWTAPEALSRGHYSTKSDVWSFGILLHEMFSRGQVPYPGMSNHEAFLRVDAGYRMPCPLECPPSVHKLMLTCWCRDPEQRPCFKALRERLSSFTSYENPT
Sequence of panel of human kinases (kinase named in endpoint) (Homo sapiens, UniProt Q9H093) (Q9H093 whole entry): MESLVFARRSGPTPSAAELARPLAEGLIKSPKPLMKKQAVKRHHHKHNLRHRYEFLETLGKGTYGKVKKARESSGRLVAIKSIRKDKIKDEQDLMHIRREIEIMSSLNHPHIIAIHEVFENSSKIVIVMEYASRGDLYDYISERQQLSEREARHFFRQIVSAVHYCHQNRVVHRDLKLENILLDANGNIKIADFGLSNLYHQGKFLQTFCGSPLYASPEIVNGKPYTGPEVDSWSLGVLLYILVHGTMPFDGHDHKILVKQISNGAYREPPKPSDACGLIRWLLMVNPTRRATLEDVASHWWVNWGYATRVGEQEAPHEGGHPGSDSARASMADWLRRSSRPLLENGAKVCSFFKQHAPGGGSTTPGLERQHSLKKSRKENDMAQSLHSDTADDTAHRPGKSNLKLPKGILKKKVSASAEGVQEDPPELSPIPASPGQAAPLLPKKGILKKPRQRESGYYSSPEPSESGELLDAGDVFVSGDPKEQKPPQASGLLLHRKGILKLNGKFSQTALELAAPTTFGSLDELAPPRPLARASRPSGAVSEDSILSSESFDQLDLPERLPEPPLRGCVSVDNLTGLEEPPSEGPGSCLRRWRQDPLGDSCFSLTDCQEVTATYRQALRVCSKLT

SMILES: CC(C)C(=O)Nc1nc2cc(-c3ccc4c(c3)c(C(=O)NC(C)c3ccccc3)cn4C)ccn2n1 (centres unmarked) [RI-962]
- activity at 10 µM [1]: 114%
- activity at 10 µM [2]: 70%
- activity at 10 µM [3]: 97%
- activity at 10 µM [4]: 94%
- activity at 10 µM [5]: 85%
- activity at 10 µM [6]: 90%
- activity at 10 µM [7]: 121%
- activity at 10 µM [8]: 84%
- activity at 10 µM [9]: 101%
- activity at 10 µM [10]: 88%
- activity at 10 µM [11]: 113%
- activity at 10 µM [12]: 86%
- activity at 10 µM [13]: 101%
- activity at 10 µM [14]: 104%
- activity at 10 µM [15]: 100%
- activity at 10 µM [16]: 104%
- activity at 10 µM ([17]; 10 µM, read-out: Activity (%), MLK2(h)): 29%
- IC50 ([17]; MLK2): > 10 µM
- activity at 10 µM ([18]; 10 µM, read-out: Activity (%), RIPK2(h)): 79%
- IC50 ([18]; RIPK2): > 10 µM
- activity at 10 µM ([19]; 10 µM, read-out: Activity (%), MLK1(h)): 36%
- IC50 ([19]; MLK1): > 10 µM
- folds less potent against MLK3 than against RIPK1 [20]: 107 folds
- activity at 10 µM ([20]; 10 µM, read-out: Activity (%), MLK3(h)): 20%
- IC50 ([20]; MLK3): 3.75 µM
- ΔTemperature Average ([21]; 0 h after mTNFα): 0 °C
- Temperature [21, 22]: 36.3 °C (4×) and 36.5 °C (3×) and 36.2 °C (5×) and 36.6 °C (2×)
- ΔTemperature [21, 22]: 0 °C
- TNFα-induced temperature loss ([21]; 40 mg/kg i.p.): remarkably reduced
- ΔTemperature Average ([21]; 1 h after mTNFα): -0.06429 °C
- Temperature ([21]; 1 h after mTNFα, individual mice): 36.3 °C (5×) and 36.2 °C (5×) and 36.1 °C and 36.5 °C (2×) and 36.4 °C
- ΔTemperature Average ([21]; 2 h after mTNFα): 0.05 °C
- Temperature ([21]; 2 h after mTNFα, individual mice): 36.3 °C (7×) and 36.4 °C and 36.5 °C (5×) and 36.6 °C
- ΔTemperature Average ([21]; 3 h after mTNFα): 0.01429 °C
- Temperature ([21]; 3 h after mTNFα, individual mice): 36.3 °C (6×) and 36.4 °C (4×) and 36.5 °C (3×) and 36.2 °C
- ΔTemperature Average ([21]; 4 h after mTNFα): 0.007143 °C
- Temperature ([21]; 4 h after mTNFα, individual mice): 36.2 °C (2×) and 36.5 °C (4×) and 36.4 °C (2×) and 36.3 °C (6×)
- ΔTemperature Average ([21]; 5 h after mTNFα): -0.02143 °C
- Temperature ([21]; 5 h after mTNFα, individual mice): 36.3 °C (7×) and 36.4 °C (3×) and 36.1 °C and 36.5 °C (2×) and 36.2 °C
- ΔTemperature Average ([21]; 6 h after mTNFα): -0.1571 °C
- Temperature ([21]; 6 h after mTNFα, individual mice): 36.3 °C (8×) and 36.4 °C and 35.9 °C (3×) and 36 °C and 36.2 °C
